In patent US4859671A, “2-substituted 1,2-benzisothiazol-3(2H)-one 1,1-dioxide useful as an anxiolytic agent” (American Home Products Corporation, priority 1988, dated 1989):

What was measured:
[1] = target: T1, 5-HT1A receptor (Rattus norvegicus, UniProt P19327); details: for inhibition at 1 µM: pH 7.7, read-out: % Inhibition at 1 μM, 5-HT1A Receptor Binding
T1 sequence (P19327 1-422): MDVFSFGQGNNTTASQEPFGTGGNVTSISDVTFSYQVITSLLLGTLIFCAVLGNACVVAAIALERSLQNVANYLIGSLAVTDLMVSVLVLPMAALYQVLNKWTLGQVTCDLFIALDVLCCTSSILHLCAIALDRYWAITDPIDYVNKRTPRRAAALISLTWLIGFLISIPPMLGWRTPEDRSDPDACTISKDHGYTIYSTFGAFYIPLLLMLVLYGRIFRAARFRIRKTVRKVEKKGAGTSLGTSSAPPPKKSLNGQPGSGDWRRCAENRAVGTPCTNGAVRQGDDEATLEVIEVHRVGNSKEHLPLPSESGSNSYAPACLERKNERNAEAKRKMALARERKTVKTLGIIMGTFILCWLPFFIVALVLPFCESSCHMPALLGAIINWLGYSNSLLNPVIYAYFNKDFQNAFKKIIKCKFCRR
Method: The assay is carried out as follows:
Hippocampal tissue from male Sprague Dawley rats is dissected and homogenized on ice in 40 volumes of buffer A (50 mM Tris-HCl, pH=7.7) using a Polytron homogenizer at setting 5 for 3×15-second bursts. The homogenate is then centrifuged at 20,000 rpm (RC5-B; 50,000 g), and the supernatant is discarded. The pellet is resuspended in 40 volumes of the same buffer and incubated at 37° C. for 10 minutes to aid in the removal of endogenous serotonin. The homogenate is then centrifuged (as above) and the supernatant discarded. The pellet is then resuspended in 100 volumes of buffer B (50 mM Tris HCl, pH=7.7 containing 0.1% ascorbate, 10 μM pargyline and 4 mM CaCl2) and sonicated. An aliquot is taken for protein determination by the Lowry method and the remainder stored frozen at -70° C. until used.
At the end of the incubation, 3 mL of cold buffer A are added to each tube, and the contents rapidly filtered through Whatman GF/B glass-fiber filters. The filters are then rapidly washed 2 times with 3 mL of the same buffer, placed in scintillation vials, and shaken for 15 minutes with 10 mL of Hydrofluor (National Diagnostics) scintillation cocktail. The vials are then counted in a Packard 460CD scintillation counter.
Specific binding is defined as total binding less binding in the presence of excess unlabeled serotonin (1 μM). Binding in the presence of various concentrations of test drug is expressed as a percent of specific binding when no drug is present. […] Ki (inhibition constant) for the test drug is then calculated by the formula: [formula]

[2] = system: anxiety; details: cited from earlier work; for efficacy in the treatment of anxiety neuroses (in words): clinical, compared with diazepam
[3] = system: 5-HT1A receptors; details: compared with buspirone; cited from earlier work

Row | SMILES | inhibition at 1 µM [1] [%] | anxiolytic activity in clinical trials (in words) [2] | efficacy in the treatment of anxiety neuroses (in words) [2] | also measured
1 | O=C1CC2(CCCC2)CC(=O)N1CCCCN1CCN(c2ncccn2)CC1 [Buspirone] | 94 |  |  | 
2 | O=C1c2ccccc2S(=O)(=O)N1CCCCN1CCN(c2nccc3ccncc23)CC1 [Example 1, 2-[4-[4-(2,7-Naphthyridin-1-yl)-1-piperazinyl]butyl]-1,2-benzoisothiazol-3(2H)-one 1,1-Dioxide] | 100 |  |  | affinity for the 5-HT1A receptor site (in words) ([1]; conclusion from Table 1): high affinity
3 | CC1(C)CC(=O)N(CCCCN2CCN(c3ncccn3)CC2)C(=O)C1 [Gepirone, 4,4-dimethyl-1-[4-[4-(2-pyrimidinyl)-1-piperazinyl]butyl]-2,6-piperidinedione] |  | potent anxiolytic drugs | comparable to the benzodiazepine diazepam | 
4 | O=C1c2ccccc2S(=O)(=O)N1CCCCN1CCN(c2ncccn2)CC1 [ipsapirone] |  | potent anxiolytic drugs |  | selectivity for 5-HT1A receptors relative to buspirone (in words) [3]: higher degree of selectivity for 5-HT1A receptors than buspirone
5 | Cc1nc2sccn2c(=O)c1CCN1CCC(=C(c2ccc(F)cc2)c2ccc(F)cc2)CC1 [ritanserin] |  |  | comparable to the benzodiazepine diazepam | 
